Reference: the supplement of paper PMC10307832

What was measured:
Experiment in all cases: relative viability (nuclei count vs DMSO), 5 days (fraction); higher = more cells survive
Sorafenib + Luminespib = compound: CNC(=O)c1cc(Oc2ccc(NC(=O)Nc3ccc(Cl)c(C(F)(F)F)c3)cc2)ccn1 [Sorafenib] + CCNC(=O)c1noc(-c2cc(C(C)C)c(O)cc2O)c1-c1ccc(CN2CCOCC2)cc1 [Luminespib] (partner 0.01 µM)
How it was run: (§1)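 Lung cancer cell lines, seeded in 1536-well plates, were treated the following day by pin tool with a single drug or with five library-drug doses (not always all listed) in √10 steps on top of a fixed anchor-drug dose. Cells were fixed and nuclei stained in one step after 5 days, and nuclei were counted. Relative viability is the nuclei count for treated wells divided by that for vehicle wells, reported as medians of duplicate plates.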

Sorafenib + OSI-027 = compound: CNC(=O)c1cc(Oc2ccc(NC(=O)Nc3ccc(Cl)c(C(F)(F)F)c3)cc2)ccn1 [Sorafenib] + COc1cccc2cc(-c3nc([C@H]4CC[C@H](C(=O)O)CC4)n4ncnc(N)c34)[nH]c12 [OSI-027] (partner 0.5 µM)
How it was run: as §1

Sorafenib + Pictilisib = compound: CNC(=O)c1cc(Oc2ccc(NC(=O)Nc3ccc(Cl)c(C(F)(F)F)c3)cc2)ccn1 [Sorafenib] + CS(=O)(=O)N1CCN(Cc2cc3nc(-c4cccc5[nH]ncc45)nc(N4CCOCC4)c3s2)CC1 [Pictilisib] (partner 1 µM)
How it was run: as §1

Sorafenib + Phenformin = compound: CNC(=O)c1cc(Oc2ccc(NC(=O)Nc3ccc(Cl)c(C(F)(F)F)c3)cc2)ccn1 [Sorafenib] + N=C(N)NC(=N)NCCc1ccccc1 [Phenformin] (partner 250 µM)
How it was run: as §1

Sorafenib + Olaparib = compound: CNC(=O)c1cc(Oc2ccc(NC(=O)Nc3ccc(Cl)c(C(F)(F)F)c3)cc2)ccn1 [Sorafenib] + O=C(c1cc(Cc2n[nH]c(=O)c3ccccc23)ccc1F)N1CCN(C(=O)C2CC2)CC1 [Olaparib] (partner 8 µM)
How it was run: as §1

| Cell Line | relative viability (Sorafenib + Luminespib; first compound 0.08 µM) | relative viability (Sorafenib + Luminespib; first compound 0.253 µM) | relative viability (Sorafenib + Luminespib; first compound 8 µM) | relative viability (Sorafenib + OSI-027; first compound 0.253 µM) | relative viability (Sorafenib + OSI-027; first compound 2.53 µM) | relative viability (Sorafenib + OSI-027; first compound 8 µM) | relative viability (Sorafenib + Pictilisib; first compound 0.08 µM) | relative viability (Sorafenib + Pictilisib; first compound 0.253 µM) | relative viability (Sorafenib + Pictilisib; first compound 2.53 µM) | relative viability (Sorafenib + Pictilisib; first compound 8 µM) | relative viability (Sorafenib + Phenformin; first compound 0.253 µM) | relative viability (Sorafenib + Phenformin; first compound 2.53 µM) | relative viability (Sorafenib + Phenformin; first compound 8 µM) | relative viability (Sorafenib + Olaparib; first compound 0.08 µM) | relative viability (Sorafenib + Olaparib; first compound 0.253 µM) | relative viability (Sorafenib + Olaparib; first compound 2.53 µM) | relative viability (Sorafenib + Olaparib; first compound 8 µM) | relative viability (Sorafenib + Luminespib; first compound 2.53 µM) | relative viability (Sorafenib + OSI-027; first compound 0.08 µM) | relative viability (Sorafenib + Phenformin; first compound 0.08 µM) |
| --- | --- | --- | --- | --- | --- | --- | --- | --- | --- | --- | --- | --- | --- | --- | --- | --- | --- | --- | --- | --- |
| 201T | 1.06 | 1.12 | 1.04 | 0.706 | 0.804 | 0.671 | 0.684 | 0.669 | 0.72 | 0.65 | 0.423 | 0.42 | 0.432 | 0.812 | 0.88 | 0.877 | 0.843 |  |  |  |
| A-427 | 0.971 | 0.951 | 0.831 | 0.511 | 0.432 | 0.219 | 0.771 | 0.669 | 0.768 | 0.376 | 0.389 | 0.333 | 0.115 | 0.71 | 0.771 | 0.733 | 0.635 | 0.757 | 0.522 | 0.444 |
| ABC-1 | 0.815 | 0.378 | 0.158 | 0.49 | 0.654 | 0.37 | 0.78 | 0.713 | 1.02 | 0.332 | 0.234 | 0.247 | 0.233 |  | 0.565 | 0.693 | 0.4 | 0.538 | 0.575 | 0.218 |
| BEN | 0.439 | 0.173 | 0.0694 | 0.326 | 0.338 | 0.27 | 0.649 | 0.512 | 0.531 | 0.413 | 0.254 | 0.239 | 0.205 | 1.02 | 1.1 | 1.01 | 0.791 | 0.2 | 0.318 | 0.278 |
| CAL-12T | 0.14 | 0.363 | 0.147 | 0.492 | 0.565 | 0.299 | 0.6 | 0.396 | 0.575 | 0.396 | 0.54 | 0.583 | 0.202 | 0.81 | 0.616 | 0.639 | 0.602 | 0.347 | 0.78 | 0.641 |
| COR-L23 | 0.731 | 0.688 | 0.135 | 0.725 | 0.754 |  | 0.952 | 0.881 | 0.745 | 0.676 | 0.419 | 0.455 | 0.287 | 0.336 | 0.372 | 0.346 | 0.233 | 0.525 | 0.874 | 0.44 |
| COR-L 105 | 1 |  | 0.623 | 0.735 | 1.05 | 0.677 | 0.413 | 0.487 | 0.476 | 0.329 | 0.458 | 0.561 | 0.441 | 0.697 | 0.72 | 0.78 | 0.718 | 1.05 | 0.816 | 0.534 |
| ChaGo-K-1 | 0.708 | 0.446 | 0.325 | 0.397 | 0.683 | 0.46 | 0.939 | 0.592 | 0.794 | 0.399 | 0.405 | 0.469 | 0.299 | 0.41 | 0.388 | 0.441 | 0.361 | 0.606 | 0.583 | 0.552 |
